Measurements as given in ChEMBL document CHEMBL4507318, “Data for DCP probe BAY-985” (2021).

Key:
[1] = test system: Tyrosine-protein kinase ABL1 (Homo sapiens), P00519 [F317L]
[2] = test system: Tyrosine-protein kinase ABL1 (Homo sapiens), P00519 [M351T]
[3] = target: Activin receptor type-1B (Homo sapiens) (UniProt P36896)
[4] = target: Activin receptor type-2A (Homo sapiens) (UniProt P27037)
[5] = target: Activin receptor type-1-like (Homo sapiens) (UniProt P37023)
[6] = target: 5'-AMP-activated protein kinase catalytic subunit alpha-1 (Homo sapiens) (UniProt Q13131)
[7] = target: Mitogen-activated protein kinase kinase kinase 5 (Homo sapiens) (UniProt Q99683)
[8] = test system: Serine/threonine-protein kinase B-raf (Homo sapiens), P15056 [V600E]
[9] = target: Calcium/calmodulin-dependent protein kinase type 1 (Homo sapiens) (UniProt Q14012)
[10] = target: Peripheral plasma membrane protein CASK (Homo sapiens) (UniProt O14936)
[11] = target: Cyclin-dependent kinase 7 (Homo sapiens) (UniProt P50613)
Cyclin-dependent kinase 7 (Homo sapiens), sequence (P50613 whole entry): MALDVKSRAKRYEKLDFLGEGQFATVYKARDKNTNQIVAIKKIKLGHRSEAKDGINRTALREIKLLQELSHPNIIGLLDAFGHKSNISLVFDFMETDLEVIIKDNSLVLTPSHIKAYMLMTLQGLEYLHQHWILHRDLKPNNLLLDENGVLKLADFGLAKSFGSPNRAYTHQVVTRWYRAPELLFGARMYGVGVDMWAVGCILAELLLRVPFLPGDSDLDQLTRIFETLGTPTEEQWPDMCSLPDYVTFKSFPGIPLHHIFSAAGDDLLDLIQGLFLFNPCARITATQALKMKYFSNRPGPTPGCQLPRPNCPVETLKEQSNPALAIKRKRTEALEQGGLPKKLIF

[12] = target: Cyclin-dependent kinase-like 1 (Homo sapiens) (UniProt Q00532)
Cyclin-dependent kinase-like 1 (Homo sapiens), sequence (Q00532 whole entry): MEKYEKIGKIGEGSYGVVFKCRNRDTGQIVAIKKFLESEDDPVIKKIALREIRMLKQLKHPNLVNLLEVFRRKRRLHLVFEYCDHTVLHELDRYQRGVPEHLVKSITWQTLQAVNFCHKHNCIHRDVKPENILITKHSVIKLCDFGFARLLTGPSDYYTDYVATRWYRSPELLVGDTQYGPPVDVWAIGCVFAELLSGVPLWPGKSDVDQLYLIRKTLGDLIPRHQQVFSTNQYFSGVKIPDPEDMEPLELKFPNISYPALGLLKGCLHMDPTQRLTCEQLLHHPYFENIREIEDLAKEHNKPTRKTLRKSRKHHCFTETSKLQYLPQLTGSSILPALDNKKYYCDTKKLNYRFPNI

[13] = target: Serine/threonine-protein kinase MRCK gamma (Homo sapiens) (UniProt Q6DT37)
[14] = target: Tyrosine-protein kinase Fer (Homo sapiens) (UniProt P16591)
[15] = test system: Receptor-type tyrosine-protein kinase FLT3 (Homo sapiens), P36888 [R834Q]
[16] = target: Tyrosine-protein kinase FRK (Homo sapiens) (UniProt P42685)
[17] = target: Cyclin-G-associated kinase (Homo sapiens) (UniProt O14976)
[18] = target: Glycogen synthase kinase-3 alpha (Homo sapiens) (UniProt P49840)
[19] = target: Tyrosine-protein kinase HCK (Homo sapiens) (UniProt P08631)
[20] = target: Homeodomain-interacting protein kinase 1 (Homo sapiens) (UniProt Q86Z02)
[21] = target: Insulin receptor-related protein (Homo sapiens) (UniProt P14616)
[22] = test system: Mast/stem cell growth factor receptor Kit (Homo sapiens), P10721 [D816H]
[23] = target: Mitogen-activated protein kinase kinase kinase 13 (Homo sapiens) (UniProt O43283)
Mitogen-activated protein kinase kinase kinase 13 (Homo sapiens), sequence (O43283 whole entry): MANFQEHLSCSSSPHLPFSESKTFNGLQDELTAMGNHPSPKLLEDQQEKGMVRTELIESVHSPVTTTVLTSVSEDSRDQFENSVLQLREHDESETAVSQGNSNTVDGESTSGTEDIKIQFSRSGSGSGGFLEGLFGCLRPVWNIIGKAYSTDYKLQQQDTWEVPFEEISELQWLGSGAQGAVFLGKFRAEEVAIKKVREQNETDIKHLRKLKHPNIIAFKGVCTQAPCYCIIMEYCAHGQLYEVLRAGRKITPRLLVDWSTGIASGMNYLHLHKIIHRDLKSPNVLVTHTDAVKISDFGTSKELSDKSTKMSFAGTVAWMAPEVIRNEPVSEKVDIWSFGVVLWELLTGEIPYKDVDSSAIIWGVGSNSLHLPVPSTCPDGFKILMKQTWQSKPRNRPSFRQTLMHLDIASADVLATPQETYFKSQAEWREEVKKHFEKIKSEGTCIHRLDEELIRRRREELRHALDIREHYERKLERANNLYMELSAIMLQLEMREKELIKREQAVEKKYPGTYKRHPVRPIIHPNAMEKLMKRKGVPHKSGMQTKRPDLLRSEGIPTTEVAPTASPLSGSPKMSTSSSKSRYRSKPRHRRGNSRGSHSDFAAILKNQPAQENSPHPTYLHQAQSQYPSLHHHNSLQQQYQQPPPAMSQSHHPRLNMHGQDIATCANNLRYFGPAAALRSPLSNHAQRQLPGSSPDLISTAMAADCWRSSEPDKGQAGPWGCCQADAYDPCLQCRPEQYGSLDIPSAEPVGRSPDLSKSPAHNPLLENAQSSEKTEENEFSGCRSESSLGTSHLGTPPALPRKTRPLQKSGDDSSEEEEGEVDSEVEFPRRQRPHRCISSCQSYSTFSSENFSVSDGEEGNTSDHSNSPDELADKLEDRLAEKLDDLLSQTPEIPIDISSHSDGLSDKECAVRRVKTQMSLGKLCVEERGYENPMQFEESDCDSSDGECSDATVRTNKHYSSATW

[24] = target: Mitogen-activated protein kinase kinase kinase 3 (Homo sapiens) (UniProt Q99759)
Mitogen-activated protein kinase kinase kinase 3 (Homo sapiens), sequence (Q99759 whole entry): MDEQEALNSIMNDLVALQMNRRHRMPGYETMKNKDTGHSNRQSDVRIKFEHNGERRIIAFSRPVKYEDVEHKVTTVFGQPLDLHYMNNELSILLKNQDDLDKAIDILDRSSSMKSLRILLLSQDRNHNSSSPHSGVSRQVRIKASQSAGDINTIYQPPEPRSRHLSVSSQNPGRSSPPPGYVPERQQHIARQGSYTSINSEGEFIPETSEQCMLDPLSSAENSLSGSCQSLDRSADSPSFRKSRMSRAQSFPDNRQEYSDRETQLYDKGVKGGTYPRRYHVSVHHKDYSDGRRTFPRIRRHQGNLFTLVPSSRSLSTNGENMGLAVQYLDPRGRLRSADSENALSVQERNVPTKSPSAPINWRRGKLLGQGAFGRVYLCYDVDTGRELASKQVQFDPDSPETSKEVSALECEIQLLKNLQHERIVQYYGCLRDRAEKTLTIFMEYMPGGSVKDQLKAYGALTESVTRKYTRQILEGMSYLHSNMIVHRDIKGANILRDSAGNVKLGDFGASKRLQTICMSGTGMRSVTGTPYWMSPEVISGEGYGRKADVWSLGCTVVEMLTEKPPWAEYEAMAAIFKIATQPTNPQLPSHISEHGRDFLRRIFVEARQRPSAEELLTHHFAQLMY

[25] = target: Maternal embryonic leucine zipper kinase (Homo sapiens) (UniProt Q14680)
[26] = target: Macrophage-stimulating protein receptor (Homo sapiens) (UniProt Q04912)
[27] = target: Serine/threonine-protein kinase Nek3 (Homo sapiens) (UniProt P51956)
[28] = target: Serine/threonine-protein kinase PAK 2 (Homo sapiens) (UniProt Q13177)
[29] = target: Cyclin-dependent kinase 18 (Homo sapiens) (UniProt Q07002)
Cyclin-dependent kinase 18 (Homo sapiens), sequence (Q07002 whole entry, the tested form may be a part): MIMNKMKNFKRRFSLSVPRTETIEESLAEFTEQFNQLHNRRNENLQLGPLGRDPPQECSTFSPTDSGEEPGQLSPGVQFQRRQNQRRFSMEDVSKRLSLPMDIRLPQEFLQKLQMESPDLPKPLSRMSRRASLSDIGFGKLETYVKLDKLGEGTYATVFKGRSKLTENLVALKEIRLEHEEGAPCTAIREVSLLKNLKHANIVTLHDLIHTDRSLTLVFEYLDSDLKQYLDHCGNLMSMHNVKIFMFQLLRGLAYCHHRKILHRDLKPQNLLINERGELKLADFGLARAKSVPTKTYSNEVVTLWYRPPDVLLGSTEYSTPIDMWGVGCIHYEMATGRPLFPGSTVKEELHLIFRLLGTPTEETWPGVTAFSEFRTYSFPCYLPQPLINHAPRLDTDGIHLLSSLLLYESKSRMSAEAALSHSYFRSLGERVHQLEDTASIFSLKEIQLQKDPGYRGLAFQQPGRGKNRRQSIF

[30] = target: Phosphatidylinositol 3-kinase C2 domain-containing subunit gamma (Homo sapiens) (UniProt O75747)
Phosphatidylinositol 3-kinase C2 domain-containing subunit gamma (Homo sapiens), sequence (O75747 whole entry, the tested form may be a part): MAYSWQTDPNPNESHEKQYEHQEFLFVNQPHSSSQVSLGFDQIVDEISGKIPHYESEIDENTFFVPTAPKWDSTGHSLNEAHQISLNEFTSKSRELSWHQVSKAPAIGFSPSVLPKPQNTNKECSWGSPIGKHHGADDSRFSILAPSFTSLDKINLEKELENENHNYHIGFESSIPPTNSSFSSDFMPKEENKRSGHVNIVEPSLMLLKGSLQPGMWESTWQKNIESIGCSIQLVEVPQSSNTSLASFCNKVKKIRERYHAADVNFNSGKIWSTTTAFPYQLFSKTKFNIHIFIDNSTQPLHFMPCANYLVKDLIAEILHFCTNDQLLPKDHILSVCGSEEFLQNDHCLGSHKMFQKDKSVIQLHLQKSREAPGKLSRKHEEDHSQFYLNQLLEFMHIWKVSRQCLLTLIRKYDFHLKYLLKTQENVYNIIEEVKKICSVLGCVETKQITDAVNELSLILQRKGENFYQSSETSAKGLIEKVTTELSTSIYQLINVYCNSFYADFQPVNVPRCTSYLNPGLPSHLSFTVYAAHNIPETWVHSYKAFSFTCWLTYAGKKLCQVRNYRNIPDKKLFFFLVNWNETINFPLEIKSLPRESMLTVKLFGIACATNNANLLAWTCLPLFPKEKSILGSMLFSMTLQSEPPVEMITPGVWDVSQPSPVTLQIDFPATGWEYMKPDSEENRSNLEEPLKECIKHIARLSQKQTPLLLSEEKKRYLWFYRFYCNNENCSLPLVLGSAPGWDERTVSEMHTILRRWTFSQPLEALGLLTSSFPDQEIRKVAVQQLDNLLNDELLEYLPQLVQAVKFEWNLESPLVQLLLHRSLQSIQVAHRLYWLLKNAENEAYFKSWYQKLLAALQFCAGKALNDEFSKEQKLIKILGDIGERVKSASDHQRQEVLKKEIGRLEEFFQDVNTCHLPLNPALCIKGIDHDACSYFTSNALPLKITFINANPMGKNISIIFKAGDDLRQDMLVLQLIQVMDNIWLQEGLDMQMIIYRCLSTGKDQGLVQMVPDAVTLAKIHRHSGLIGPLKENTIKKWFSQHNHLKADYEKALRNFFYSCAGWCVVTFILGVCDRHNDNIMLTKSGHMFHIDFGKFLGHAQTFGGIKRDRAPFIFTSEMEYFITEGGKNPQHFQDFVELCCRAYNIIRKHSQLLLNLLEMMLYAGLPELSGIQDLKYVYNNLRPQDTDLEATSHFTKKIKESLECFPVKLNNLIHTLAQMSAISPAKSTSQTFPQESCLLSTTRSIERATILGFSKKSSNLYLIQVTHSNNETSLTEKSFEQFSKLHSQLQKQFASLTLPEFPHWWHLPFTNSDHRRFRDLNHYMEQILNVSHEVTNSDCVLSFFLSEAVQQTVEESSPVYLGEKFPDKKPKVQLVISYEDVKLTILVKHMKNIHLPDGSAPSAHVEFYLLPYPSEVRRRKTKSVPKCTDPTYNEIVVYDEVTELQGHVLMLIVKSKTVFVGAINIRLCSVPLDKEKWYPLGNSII

[31] = target: Serine/threonine-protein kinase pim-2 (Homo sapiens) (UniProt Q9P1W9)
[32] = target: Serine/threonine-protein kinase PLK3 (Homo sapiens) (UniProt Q9H4B4)
[33] = target: Protein kinase C eta type (Homo sapiens) (UniProt P24723)
[34] = test system: Proto-oncogene tyrosine-protein kinase receptor Ret (Homo sapiens), P07949 [M918T]
[35] = target: Receptor-interacting serine/threonine-protein kinase 1 (Homo sapiens) (UniProt Q13546)
Receptor-interacting serine/threonine-protein kinase 1 (Homo sapiens), sequence (Q13546 whole entry): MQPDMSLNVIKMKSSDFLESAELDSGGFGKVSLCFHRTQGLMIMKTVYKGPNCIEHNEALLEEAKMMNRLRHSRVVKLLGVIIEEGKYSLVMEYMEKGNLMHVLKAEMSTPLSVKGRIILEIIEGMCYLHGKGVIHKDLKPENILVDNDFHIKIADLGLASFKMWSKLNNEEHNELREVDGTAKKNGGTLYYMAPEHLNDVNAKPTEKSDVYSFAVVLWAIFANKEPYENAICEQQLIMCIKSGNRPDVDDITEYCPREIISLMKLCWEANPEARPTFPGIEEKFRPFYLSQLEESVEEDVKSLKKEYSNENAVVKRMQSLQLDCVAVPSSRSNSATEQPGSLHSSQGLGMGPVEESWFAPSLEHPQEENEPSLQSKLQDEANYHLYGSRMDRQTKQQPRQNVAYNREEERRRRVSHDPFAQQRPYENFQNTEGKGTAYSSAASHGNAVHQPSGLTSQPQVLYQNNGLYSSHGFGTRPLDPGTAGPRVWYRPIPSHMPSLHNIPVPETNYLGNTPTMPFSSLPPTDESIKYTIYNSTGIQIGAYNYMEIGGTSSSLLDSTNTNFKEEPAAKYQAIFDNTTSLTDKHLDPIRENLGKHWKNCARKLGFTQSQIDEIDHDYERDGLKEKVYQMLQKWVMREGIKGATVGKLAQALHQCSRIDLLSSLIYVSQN

[36] = target: Rho-associated protein kinase 1 (Homo sapiens) (UniProt Q13464)
[37] = target: Proto-oncogene tyrosine-protein kinase ROS (Homo sapiens) (UniProt P08922)
[38] = target: STE20/SPS1-related proline-alanine-rich protein kinase (Homo sapiens) (UniProt Q9UEW8)
[39] = target: Serine/threonine-protein kinase tousled-like 1 (Homo sapiens) (UniProt Q9UKI8)
[40] = target: Serine/threonine-protein kinase 32A (Homo sapiens) (UniProt Q8WU08)
[41] = target: Serine/threonine-protein kinase 25 (Homo sapiens) (UniProt O00506)
[42] = target: 5-hydroxytryptamine receptor 2C (Homo sapiens) (UniProt P28335); details: Compound concentration 10.0 uM
[43] = target: Alpha-2B adrenergic receptor (Homo sapiens) (UniProt P18089); details: Compound concentration 10.0 uM
[44] = target: Beta-2 adrenergic receptor (Homo sapiens) (UniProt P07550); details: Compound concentration 10.0 uM
[45] = target: Sigma non-opioid intracellular receptor 1 (Homo sapiens) (UniProt Q99720); details: Compound concentration 10.0 uM
[46] = Compound concentration 1000.0 nM
[47] = Compound concentration 100.0 nM

## CN(C)c1ncnc(-c2ccc3nc(Nc4cc(CN5CCN(C(=O)CC(F)(F)F)CC5)ccn4)[nH]c3c2)c1Cl [BAY-440]
[1]; [46]
  residual activity: 29%
[2]; [46]
  residual activity: 43%
[3]; [46]
  residual activity: 91%
[4]; [46]
  residual activity: 90%
[5]; [46]
  residual activity: 94%
[6]; [46]
  residual activity: 100%
[7]; [46]
  residual activity: 100%
[8]; [46]
  residual activity: 84%
[9]; [46]
  residual activity: 100%
[10]; [46]
  residual activity: 89%
[11]; [46]
  residual activity: 80%
[12]; [46]
  residual activity: 96%
[13]; [46]
  residual activity: 100%
[14]; [46]
  residual activity: 100%
[15]; [46]
  residual activity: 77%
[16]; [46]
  residual activity: 85%
[17]; [46]
  residual activity: 82%
[18]; [46]
  residual activity: 75%
[19]; [46]
  residual activity: 80%
[20]; [46]
  residual activity: 74%
[21]; [46]
  residual activity: 95%
[22]; [46]
  residual activity: 75%
[23]; [46]
  residual activity: 86%
[24]; [46]
  residual activity: 50%
[25]; [46]
  residual activity: 95%
[26]; [46]
  residual activity: 98%
[27]; [46]
  residual activity: 69%
[28]; [46]
  residual activity: 100%
[29]; [46]
  residual activity: 100%
[30]; [46]
  residual activity: 83%
[31]; [46]
  residual activity: 100%
[32]; [46]
  residual activity: 100%
[33]; [46]
  residual activity: 100%
[34]; [46]
  residual activity: 100%
[35]; [46]
  residual activity: 93%
[36]; [46]
  residual activity: 100%
[37]; [46]
  residual activity: 100%
[38]; [46]
  residual activity: 69%
[39]; [46]
  residual activity: 89%
[40]; [46]
  residual activity: 85%
[41]; [46]
  residual activity: 100%
[42]
  inhibition: 0.02%
[43]
  inhibition: -2.22%
[44]
  inhibition: 12.6%
[45]
  inhibition: 13.9%

## C[C@H](c1ccnc(Nc2nc3ccc(-c4cc(N(C)C)ncn4)cc3[nH]2)c1)N1CCN(C(=O)CC(F)(F)F)CC1 [BAY-985]
[1]; [47]
  residual activity: 100%
[2]; [47]
  residual activity: 100%
[3]; [47]
  residual activity: 94%
[4]; [47]
  residual activity: 100%
[5]; [47]
  residual activity: 100%
[6]; [47]
  residual activity: 100%
[7]; [47]
  residual activity: 100%
[8]; [47]
  residual activity: 100%
[9]; [47]
  residual activity: 88%
[10]; [47]
  residual activity: 100%
[11]; [47]
  residual activity: 93%
[12]; [47]
  residual activity: 100%
[13]; [47]
  residual activity: 79%
[14]; [47]
  residual activity: 100%
[15]; [47]
  residual activity: 100%
[16]; [47]
  residual activity: 92%
[17]; [47]
  residual activity: 95%
[18]; [47]
  residual activity: 100%
[19]; [47]
  residual activity: 91%
[20]; [47]
  residual activity: 95%
[21]; [47]
  residual activity: 100%
[22]; [47]
  residual activity: 82%
[23]; [47]
  residual activity: 100%
[24]; [47]
  residual activity: 100%
[25]; [47]
  residual activity: 100%
[26]; [47]
  residual activity: 80%
[27]; [47]
  residual activity: 100%
[28]; [47]
  residual activity: 68%
[29]; [47]
  residual activity: 89%
[30]; [47]
  residual activity: 94%
[31]; [47]
  residual activity: 100%
[32]; [47]
  residual activity: 100%
[33]; [47]
  residual activity: 84%
[34]; [47]
  residual activity: 86%
[35]; [47]
  residual activity: 95%
[36]; [47]
  residual activity: 100%
[37]; [47]
  residual activity: 100%
[38]; [47]
  residual activity: 100%
[39]; [47]
  residual activity: 76%
[40]; [47]
  residual activity: 100%
[41]; [47]
  residual activity: 100%
[42]
  inhibition: 11.4%
[43]
  inhibition: 24.7%
[44]
  inhibition: 33.3%
[45]
  inhibition: 3.18%
